Test results from patent publication US11999746B2, “Compounds” (GlaxoSmithKline Intellectual Property Development Limited, priority 2014, dated 2024).
Counter-ions that a name gives are not always drawn.

Columns and labels:
Lp-PLA2 in human plasma = molecular target: T1, Lp-PLA2 in human plasma (Homo sapiens, UniProt Q13093); experiment: (3b) Lp-PLA2 human plasma alternative Thio-PAF assay; type: biochemical; details: (3b) alternative Thio-PAF assay, pooled human plasma; Examples of 266-412 were tested here; read-out: pIC50 in the Lp-PLA2 human plasma assay (converted)
T1 construct: from tissue; host or cells: pooled human plasma
T1 sequence (Q13093 22-441): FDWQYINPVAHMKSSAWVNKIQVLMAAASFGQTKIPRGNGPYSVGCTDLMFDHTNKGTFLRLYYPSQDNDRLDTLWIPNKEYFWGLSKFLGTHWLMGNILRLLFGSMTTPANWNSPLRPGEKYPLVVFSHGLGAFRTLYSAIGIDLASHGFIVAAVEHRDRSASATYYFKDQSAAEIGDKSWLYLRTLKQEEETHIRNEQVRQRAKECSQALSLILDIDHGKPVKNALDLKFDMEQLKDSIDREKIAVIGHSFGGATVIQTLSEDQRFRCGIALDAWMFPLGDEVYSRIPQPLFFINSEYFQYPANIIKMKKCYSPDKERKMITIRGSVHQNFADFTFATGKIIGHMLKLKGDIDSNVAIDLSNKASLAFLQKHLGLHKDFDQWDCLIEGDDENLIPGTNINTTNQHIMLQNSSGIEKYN
Summary of the method: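 Pooled human plasma was preincubated with compound for 15 min at RT. Substrate solution (2 mM 2-thio-PAF, 52 μM CPM, 2.5 mM NEM in 50 mM HEPES pH 7.4, 150 mM NaCl, 1 mM CHAPS; pre-addition concentrations) was added, and the reaction was quenched with 5% TFA after 3 min. Fluorescence was read at ex 380/em 485 nm and fitted to give pIC50.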

[1] = molecular target: T2, recombinant human Lp-PLA2 (Homo sapiens, UniProt Q13093); experiment: (1b) hrThioPAF assay, recombinant human Lp-PLA2; type: biochemical; details: Examples 266-412 were tested here, one experiment or average of multiple experiments, read-out: rhLp-PLA2 (pIC50) (converted)
T2 sequence (Q13093 22-441): T1 sequence (Q13093 22-441)
Summary of the method: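 Fluorogenic assay: 20 pM rhLp-PLA2 in 50 mM HEPES pH 7.4, 150 mM NaCl, 1 mM CHAPS with 1:3 serially diluted compounds; substrate mix of 40 μM 2-thio-PAF, 40 μM CPM, 400 μM NEM (pre-addition levels). 20 min at 25 °C in the dark; fluorescence ex 380/em 485 nm, pIC50 by curve fitting.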

Row | IC50 (Lp-PLA2 in human plasma) [nM] | IC50 [1] [nM] | SMILES
1 | ≤ 100 | ≤ 10000 | CN1CC2Cn3c(cc(OCc4ccc(F)c(C#N)c4)nc3=O)N2CC1=O (stereo not shown) [Example E357, 2-Fluoro-5-(((2-methyl-3,9-dioxo-2,3,4,9,11,11a-hexahydro-1H-pyrazino[1,2′:3,4]imidazo[1,2-c]pyrimidin-7-yl)oxy)methyl)benzonitrile]
2 | ≤ 100 | ≤ 10000 | O=C1CN2c3cc(OCc4ccc(F)c(F)c4)nc(=O)n3CC2CN1CC(F)(F)F (stereo not shown) [Example E358, 7-((3,4-Difluorobenzyl)oxy)-2-(2,2,2-trifluoroethyl)-11,11a-dihydro-1Hpyrazino[1′,2′:3,4] imidazo[1,2-c]pyrimidine-3,9(2H,4H)-dione]
3 | ≤ 100 | ≤ 10000 | CN1CC2Cn3c(cc(OCc4ccc(F)c(F)c4)nc3=O)N2CC1=O (stereo not shown) [Example E359, 7-((3,4-Difluorobenzyl)oxy)-2-methyl-11,11a-dihydro-1H-pyrazino[1,2′:3,4]imidazo[1,2-c]pyrimidine-3,9(2H,4H)-dione]
4 | ≤ 100 | ≤ 10000 | Cc1ccc(Oc2c(F)cc(COc3cc4n(c(=O)n3)CC3CN(C)C(=O)CN43)cc2F)cn1 (stereo not shown) [Example E360, 7-((3,5-difluoro-4-((6-methylpyridin-3-yl)oxy)benzyl)oxy)-2-methyl-11,11a-dihydro-1H-pyrazino[1′,2′:3,4]imidazo[1,2-c]pyrimidine-3,9(2H,4H)-dione, trifluoroacetic acid salt]
5 | ≤ 100 | ≤ 100 | N#Cc1cc(COc2cc3n(c(=O)n2)CC2CSCCN32)ccc1F (stereo not shown) [Example E364, 2-Fluoro-5-(((9-oxo-1,3,4,9,11,11a-hexahydropyrimido[6′,1′:2,3]imidazo[5,1-c][1,4]thiazin-7-yl)oxy)methyl)benzonitrile]
6 | ≤ 100 | ≤ 10000 | N#Cc1cc(COc2cc3n(c(=O)n2)CC2C[S+]([O-])CCN32)ccc1F (stereo not shown) [Example E366, 2-Fluoro-5-(((2-oxido-9-oxo-1,3,4,9,11,11a-hexahydropyrimido[6′,1′:2,3]imidazo[5,1-c][1,4]thiazin-7-yl)oxy)methyl)benzonitrile]
7 | ≤ 100 | ≤ 10000 | N#Cc1cc(COc2cc3n(c(=O)n2)CC2CS(=O)(=O)CCN32)ccc1F (stereo not shown) [Example E367, 5-(((2,2-Dioxido-9-oxo-1,3,4,9,11,11a-hexahydropyrimido[6′,1′:2,3]imidazo[5,1-c][1,4]thiazin-7-yl)oxy)methyl)-2-fluorobenzonitrile]
8 | ≤ 100 | ≤ 1 | O=c1nc(OCc2cc(F)c(Oc3ccnc(C(F)(F)F)c3)c(F)c2)cc2n1CC1CSCCN21 (stereo not shown) [Example E368, 7-((3,5-Difluoro-4-((2-(trifluoromethyl)pyridin-4-yl)oxy)benzyl)oxy) 3,4,11,11a-tetrahydropyrimido[6′,1′:2,3]imidazo[5,1-c][1,4]thiazin-9(1H)-one]
9 | ≤ 100 | ≤ 10000 | O=c1nc(OCc2cc(F)c(Oc3ccnc(C(F)(F)F)c3)c(F)c2)cc2n1CC1C[S+]([O-])CCN21 (stereo not shown) [Example E369, 7-((3,5-Difluoro-4-((2-(trifluoromethyl)pyridin-4-yl)oxy)benzyl)oxy)-3,4,11,11a-tetrahydropyrimido[6′,1′:2,3]imidazo[5,1-c][1,4]thiazin-9(1H)-one 2-oxide]
10 | ≤ 100 | ≤ 10000 | O=c1nc(OCc2cc(F)c(Oc3ccnc(C(F)(F)F)c3)c(F)c2)cc2n1CC1CS(=O)(=O)CCN21 (stereo not shown) [Example E370, 7-((3,5-Difluoro-4-((2-(trifluoromethyl)pyridin-4-yl)oxy)benzyl)oxy)-3,4,11,11a-tetrahydropyrimido[6′,1′:2,3]imidazo[5,1-c][1,4]thiazin-9(1H)-one-2,2-dioxide]
11 | ≤ 100 | ≤ 1 | O=c1nc(OCc2cc(F)c(Oc3cncc(C(F)(F)F)c3)c(F)c2)cc2n1CC1CSCCN21 (stereo not shown) [Example E371, 7-((3,5-Difluoro-4-((5-(trifluoromethyl)pyridin-3-yl)oxy)benzyl)oxy)-3,4,11,11a-tetrahydropyrimido[6′,1′:2,3]imidazo[5,1-c][1,4]thiazin-9(1H)-one]
12 | ≤ 100 | ≤ 1 | O=c1nc(OCc2cc(F)c(Oc3cncc(C(F)(F)F)c3)c(F)c2)cc2n1CC1C[S+]([O-])CCN21 (stereo not shown) [Example E372, 7-((3,5-Difluoro-4-((5-(trifluoromethyl)pyridin-3-yl)oxy)benzyl)oxy)-3,4,11,11a-tetrahydropyrimido[6′,1′:2,3]imidazo[5,1-c][1,4]thiazin-9(1H)-one 2-oxide]
13 | ≤ 100 | ≤ 10000 | O=c1nc(OCc2cc(F)c(Oc3cncc(C(F)(F)F)c3)c(F)c2)cc2n1CC1CS(=O)(=O)CCN21 (stereo not shown) [Example E373, 7-((3,5-Difluoro-4-((5-(trifluoromethyl)pyridin-3-yl)oxy)benzyl)oxy)-3,4,11,11a-tetrahydropyrimido[6′,1′:2,3]imidazo[5,1-c][1,4]thiazin-9(1H)-one 2,2-dioxide]
14 | ≤ 100 | ≤ 10000 | N#Cc1cc(COc2cc3n(c(=O)n2)C[C@@H]2C[C@H](O)CN32)ccc1F [Example E382, 2-Fluoro-5-((((7S,8aS)-7-hydroxy-1-oxo-1,6,7,8,8a,9-hexahydropyrrolo[1′,2′:3,4]imidazo[1,2-c]pyrimidin-3-yl)oxy)methyl)benzonitrile]
15 | ≤ 100 | ≤ 1 | O=c1nc(OCc2cc(F)c(Oc3ccnc(C(F)(F)F)c3)c(F)c2)cc2n1C[C@@H]1C[C@H](O)CN21 [Example E383, (7S,8aS)-3-((3,5-Difluoro-4-((2-(trifluoromethyl)pyridin-4-yl)oxy)benzyl)oxy)-7-hydroxy-7,8,8a,9-tetrahydropyrrolo[1′,2′:3,4]imidazo[1,2-c]pyrimidin-1(6H)-one]
16 | ≤ 100 | ≤ 10000 | O=c1nc(OCc2cc(F)c(Oc3ccnc(C(F)(F)F)c3)c(F)c2)cc2n1C[C@H]1C[C@@H](O)CN21 [Example E384, (7R,8aR)-3-((3,5-Difluoro-4-((2-(trifluoromethyl)pyridin-4-yl)oxy)benzyl)oxy)-7-hydroxy-7,8,8a,9-tetrahydropyrrolo[1′,2′:3,4]imidazo[1,2-c]pyrimidin-1(6H)-one]
17 | ≤ 100 | ≤ 10000 | N#Cc1cc(COc2cc3n(c(=O)n2)C[C@H]2C[C@H](N)CN32)ccc1F [Example E386, 5-((((7S,8aR)-7-Amino-1-oxo-1,6,7,8,8a,9-hexahydropyrrolo[1,2′:3,4]imidazo[1,2-c]pyrimidin-3-yl)oxy)methyl)-2-fluorobenzonitrile]
18 | ≤ 100 | ≤ 10000 | N[C@@H]1C[C@@H]2Cn3c(cc(OCc4cc(F)c(Oc5ccnc(C(F)(F)F)c5)c(F)c4)nc3=O)N2C1 [Example E387, (7R,8aR)-7-Amino-3-((3,5-difluoro-4-((2-(trifluoromethyl)pyridin-4-yl)oxy)benzyl)oxy)-7,8,8a,9-tetrahydropyrrolo[1′,2′:3,4]imidazo[1,2-c]pyrimidin-1(6H)-one]
19 | ≤ 100 | ≤ 1 | N[C@H]1C[C@@H]2Cn3c(cc(OCc4cc(F)c(Oc5ccnc(C(F)(F)F)c5)c(F)c4)nc3=O)N2C1 [Example E388, (7S,8aR)-7-Amino-3-((3,5-difluoro-4-((2-(trifluoromethyl)pyridin-4-yl)oxy)benzyl)oxy)-7,8,8a,9-tetrahydropyrrolo[1′,2′:3,4]imidazo[1,2-c]pyrimidin-1(6H)-one]
20 | ≤ 100 | ≤ 10000 | N[C@H]1C[C@H]2Cn3c(cc(OCc4cc(F)c(Oc5ccnc(C(F)(F)F)c5)c(F)c4)nc3=O)N2C1 [Example E390, (7S,8aS)-7-Amino-3-((3,5-difluoro-4-((2-(trifluoromethyl)pyridin-4-yl)oxy)benzyl)oxy)-7,8,8a,9-tetrahydropyrrolo[1′,2′:3,4]imidazo[1,2-c]pyrimidin-1(6H)-one]
21 | ≤ 100 | ≤ 10000 | N#Cc1cc(COc2cc3n(c(=O)n2)C[C@@H]2C[C@H](N)CN32)ccc1F [Example E391, 5-((((7S,8aS)-7-Amino-1-oxo-1,6,7,8,8a,9-hexahydropyrrolo[1′,2′:3,4]imidazo[1,2-c]pyrimidin-3-yl)oxy)methyl)-2-fluorobenzonitrile]
22 | ≤ 100 | ≤ 10000 | N[C@@H]1C[C@H]2Cn3c(cc(OCc4cc(F)c(Oc5ccnc(C(F)(F)F)c5)c(F)c4)nc3=O)N2C1 [Example E392, (7R,8aS)-7-Amino-3-((3,5-difluoro-4-((2-(trifluoromethyl)pyridin-4-yl)oxy)benzyl)oxy)-7,8,8a,9-tetrahydropyrrolo[1′,2′:3,4]imidazo[1,2-c]pyrimidin-1(6H)-one]
23 | ≤ 100 | ≤ 10000 | Cc1ccc(Oc2c(F)cc(COc3cc4n(c(=O)n3)CC3(COC3)N4)cc2F)cn1 [Example E394, 7-((3,5-Difluoro-4-((6-methylpyridin-3-yl)oxy)benzyl)oxy)-1H-spiro[imidazo[1,2-c]pyrimidine-2,3′-oxetan]-5(3H)-one]
